From PMC5218480 (PLoS ONE, 2017) come the findings set out here.

This test concerns MV-4-11 cells. Put plainly: Gene expression microarray analysis (Affymetrix PrimeView) and GSEA. The format is cell-based, human. On the set-up: RFU PODN (11730768_x_at) / Fold change /veh PODN (11730768_x_at) / RFU LINC00158 (11744669_a_at) / Fold change /veh LINC00158 (11744669_a_at) / RFU DUSP10 (11751237_a_at) / Fold change /veh DUSP10 (11751237_a_at) / RFU ID3 (11757404_x_at) / Fold change /veh ID3 (11757404_x_at) / RFU PLEKHG5 (11737974_s_at) / Fold change /veh PLEKHG5 (11737974_s_at) / RFU LRRC4B (11730491_at) / Fold change /veh LRRC4B (11730491_at) / RFU GIMAP4 (11747438_a_at) / Fold change /veh GIMAP4 (11747438_a_at) / RFU KRT8 (11758183_x_at) / Fold change /veh KRT8 (11758183_x_at) / RFU CNN1 (11734310_a_at) / Fold change /veh CNN1 (11734310_a_at) / RFU VPS37D (11726825_at) / Fold change /veh VPS37D (11726825_at) / RFU C10orf10 (11716522_x_at) / Fold change /veh C10orf10 (11716522_x_at) / RFU KIR2DL2 /// KIR2DL4 /// KIR2DL5A /// KIR2DL5B /// KIR2DS1 /// KIR2DS2 /// KIR2DS3 /// KIR2DS4 /// KIR3DL3 /// KIR3DL3 /// KIR3DS1 (11738374_at) / Fold change /veh KIR2DL2 /// KIR2DL4 /// KIR2DL5A /// KIR2DL5B /// KIR2DS1 /// KIR2DS2 /// KIR2DS3 /// KIR2DS4 /// KIR3DL3 /// KIR3DL3 /// KIR3DS1 (11738374_at) / RFU C1QL1 (11718748_at) / Fold change /veh C1QL1 (11718748_at) / RFU TMPRSS4 (11747572_a_at) / Fold change /veh TMPRSS4 (11747572_a_at) / RFU HAMP (11756126_x_at) / Fold change /veh HAMP (11756126_x_at) / RFU RNFT2 (11725882_a_at) / Fold change /veh RNFT2 (11725882_a_at) / RFU NR4A2 (11747474_a_at) / Fold change /veh NR4A2 (11747474_a_at) / RFU ABCC12 (11746883_a_at) / Fold change /veh ABCC12 (11746883_a_at) / RFU TMEM136 (11760407_x_at) / Fold change /veh TMEM136 (11760407_x_at) / RFU CLDN22 /// WWC2 (11732394_at) / Fold change /veh CLDN22 /// WWC2 (11732394_at) / RFU HLA-DPB1 (11760878_x_at) / Fold change /veh HLA-DPB1 (11760878_x_at) / RFU SPINT1 (11716480_a_at) / Fold change /veh SPINT1 (11716480_a_at) / RFU GAP43 (11754022_s_at) / Fold change /veh GAP43 (11754022_s_at) / RFU A4GNT (11735810_at) / Fold change /veh A4GNT (11735810_at) / RFU PRB3 (11715151_x_at) / Fold change /veh PRB3 (11715151_x_at) / RFU TUBB4B (11761932_at) / Fold change /veh TUBB4B (11761932_at) / RFU CAPN14 (11732068_a_at) / Fold change /veh CAPN14 (11732068_a_at) / RFU TMCC2 (11721928_a_at) / Fold change /veh TMCC2 (11721928_a_at) / RFU IRGQ (11745062_a_at) / Fold change /veh IRGQ (11745062_a_at) / RFU FAM174B (11720279_a_at) / Fold change /veh FAM174B (11720279_a_at) / RFU TMPRSS4 (11748680_a_at) / Fold change /veh TMPRSS4 (11748680_a_at) / RFU FAM212B (11763350_a_at) / Fold change /veh FAM212B (11763350_a_at) / RFU PLEKHG5 (11743358_a_at) / Fold change /veh PLEKHG5 (11743358_a_at) / RFU ZSCAN30 (11745921_a_at) / Fold change /veh ZSCAN30 (11745921_a_at) / RFU CMKLR1 (11741424_a_at) / Fold change /veh CMKLR1 (11741424_a_at) / RFU LOC101060620 /// MAPK8IP1 (11723275_at) / Fold change /veh LOC101060620 /// MAPK8IP1 (11723275_at) / RFU SPTSSB (11747773_x_at) / Fold change /veh SPTSSB (11747773_x_at) / RFU PRSS12 (11739890_at) / Fold change /veh PRSS12 (11739890_at) / RFU BIN1 (11741810_x_at) / Fold change /veh BIN1 (11741810_x_at) / RFU WNT11 (11732464_a_at) / Fold change /veh WNT11 (11732464_a_at) / RFU C10orf10 (11716521_a_at) / Fold change /veh C10orf10 (11716521_a_at) / RFU C5orf56 (11738089_at) / Fold change /veh C5orf56 (11738089_at) / RFU CYB561 (11721691_x_at) / Fold change /veh CYB561 (11721691_x_at) / RFU ANKRD19P (11752326_a_at) / Fold change /veh ANKRD19P (11752326_a_at) / RFU OR2T12 /// OR2T33 /// OR2T8 (11738714_s_at) / Fold change /veh OR2T12 /// OR2T33 /// OR2T8 (11738714_s_at) / RFU VCAN (11748164_a_at) / Fold change /veh VCAN (11748164_a_at) / RFU JSRP1 (11732532_at) / Fold change /veh JSRP1 (11732532_at) / RFU KRTAP10-11 (11738290_x_at) / Fold change /veh KRTAP10-11 (11738290_x_at) / RFU MYO3A (11730013_a_at) / Fold change /veh MYO3A (11730013_a_at) / RFU EBF3 (11725865_a_at) / Fold change /veh EBF3 (11725865_a_at) / RFU CAMK2N1 (11719241_x_at) / Fold change /veh CAMK2N1 (11719241_x_at) / RFU C5orf56 (11738088_a_at) / Fold change /veh C5orf56 (11738088_a_at) / RFU OLFML3 (11715873_a_at) / Fold change /veh OLFML3 (11715873_a_at) / RFU LOC100653217 /// NTM (11731650_a_at) / Fold change /veh LOC100653217 /// NTM (11731650_a_at) / RFU MAPK11 (11762145_a_at) / Fold change /veh MAPK11 (11762145_a_at) / RFU FIZ1 (11724087_x_at) / Fold change /veh FIZ1 (11724087_x_at) / RFU OASL (11726364_x_at) / Fold change /veh OASL (11726364_x_at) / RFU SOX15 (11748057_x_at) / Fold change /veh SOX15 (11748057_x_at) / RFU CD79A (11719716_a_at) / Fold change /veh CD79A (11719716_a_at) / RFU HIST1H1D (11736915_at) / Fold change /veh HIST1H1D (11736915_at) / RFU CASKIN2 (11723855_a_at) / Fold change /veh CASKIN2 (11723855_a_at) / RFU LOC730098 (11760151_x_at) / Fold change /veh LOC730098 (11760151_x_at) / RFU OR4N2 (11742367_at) / Fold change /veh OR4N2 (11742367_at) / RFU PRRT2 (11749266_a_at) / Fold change /veh PRRT2 (11749266_a_at) / RFU SNX32 (11753110_a_at) / Fold change /veh SNX32 (11753110_a_at) / RFU CDHR5 (11726645_a_at) / Fold change /veh CDHR5 (11726645_a_at) / RFU RCAN1 (11760418_a_at) / Fold change /veh RCAN1 (11760418_a_at) / RFU FAM167A (11723789_a_at) / Fold change /veh FAM167A (11723789_a_at) / RFU FAM26E (11764081_at) / Fold change /veh FAM26E (11764081_at) / RFU ISYNA1 (11749810_s_at) / Fold change /veh ISYNA1 (11749810_s_at) / RFU ACY1 (11761880_at) / Fold change /veh ACY1 (11761880_at) / RFU 11764098_at / Fold change /veh 11764098_at / RFU SAMD14 (11745864_x_at) / Fold change /veh SAMD14 (11745864_x_at) / RFU NPB (11741838_a_at) / Fold change /veh NPB (11741838_a_at) / RFU TMPRSS6 (11731388_a_at) / Fold change /veh TMPRSS6 (11731388_a_at) / RFU KRTAP10-2 (11738614_at) / Fold change /veh KRTAP10-2 (11738614_at) / RFU ARHGAP8 /// PRR5-ARHGAP8 (11727945_x_at) / Fold change /veh ARHGAP8 /// PRR5-ARHGAP8 (11727945_x_at) / RFU KRTAP5-7 /// NADSYN1 (11734609_at) / Fold change /veh KRTAP5-7 /// NADSYN1 (11734609_at) / RFU RASL12 (11751679_a_at) / Fold change /veh RASL12 (11751679_a_at) / RFU CDKN2B (11736163_a_at) / Fold change /veh CDKN2B (11736163_a_at) / RFU PRF1 (11729649_at) / Fold change /veh PRF1 (11729649_at) / RFU, ZNF638 /// ZNF638-IT1 / Fold change vs veh, ZNF638 /// ZNF638-IT1 / RFU, PANK3 / Fold change vs veh, PANK3 / RFU, SH3YL1 / Fold change vs veh, SH3YL1 / RFU, ZEB2 / Fold change vs veh, ZEB2 / RFU, NRIP1 / Fold change vs veh, NRIP1 / RFU, PTTG1IP / Fold change vs veh, PTTG1IP / RFU, CAPN2 / Fold change vs veh, CAPN2 / RFU, MED14 / Fold change vs veh, MED14 / RFU, SNORA58 / Fold change vs veh, SNORA58 / RFU, C1orf63 / Fold change vs veh, C1orf63 / RFU, LRRFIP1 / Fold change vs veh, LRRFIP1 / RFU, NDUFAF7 / Fold change vs veh, NDUFAF7 / RFU, SLC12A2 / Fold change vs veh, SLC12A2 / RFU, IBTK / Fold change vs veh, IBTK / RFU, ESF1 / Fold change vs veh, ESF1 / Fold change vs veh, TMEM50B / RFU, TAOK1 / Fold change vs veh, TAOK1 / RFU, ACBD3 / Fold change vs veh, ACBD3 / RFU, TMA16 / Fold change vs veh, TMA16 / RFU, RWDD3 / Fold change vs veh, RWDD3 / RFU, BCAT1 / Fold change vs veh, BCAT1 / RFU, EDEM3 / Fold change vs veh, EDEM3 / RFU, TMEM33 / Fold change vs veh, TMEM33 / RFU, WDR75 / Fold change vs veh, WDR75 / RFU, AHCTF1 / Fold change vs veh, AHCTF1 / RFU, TFRC / Fold change vs veh, TFRC / RFU, ZDHHC17 / Fold change vs veh, ZDHHC17 / RFU, NOM1 / Fold change vs veh, NOM1 / RFU, ARL8B / Fold change vs veh, ARL8B / RFU, ZBTB11 / Fold change vs veh, ZBTB11 / RFU, TAMM41 / Fold change vs veh, TAMM41 / RFU, KIAA1704 /// LOC100996395 / Fold change vs veh, KIAA1704 /// LOC100996395 / RFU, ING1 / Fold change vs veh, ING1 / RFU, TRMT61B / Fold change vs veh, TRMT61B / RFU, FUBP3 / Fold change vs veh, FUBP3 / RFU, TP53 / Fold change vs veh, TP53 / RFU, TNKS2 / Fold change vs veh, TNKS2 / RFU, ZFP14 / Fold change vs veh, ZFP14 / RFU, ACTR2 / Fold change vs veh, ACTR2 / RFU, PPP3R1 / Fold change vs veh, PPP3R1 / RFU, PIK3R1 / Fold change vs veh, PIK3R1 / RFU, HNRNPA1 / Fold change vs veh, HNRNPA1 / RFU, RNF170 / Fold change vs veh, RNF170 / RFU, ZNF28 / Fold change vs veh, ZNF28 / RFU, RNGTT / Fold change vs veh, RNGTT / RFU, OGT / Fold change vs veh, OGT / RFU, BRD1 / Fold change vs veh, BRD1 / RFU, MARS / Fold change vs veh, MARS / RFU, ZNF655 / Fold change vs veh, ZNF655 / RFU, FAHD1 / Fold change vs veh, FAHD1 / RFU, BDP1 / Fold change vs veh, BDP1 / RFU, LRRCC1 / Fold change vs veh, LRRCC1 / RFU, ARID1A / Fold change vs veh, ARID1A / RFU, ZNF146 / Fold change vs veh, ZNF146 / RFU, ZNF330 / Fold change vs veh, ZNF330 / RFU, GPN3 / Fold change vs veh, GPN3 / RFU, C9orf123 / Fold change vs veh, C9orf123 / RFU, N4BP2L2 / Fold change vs veh, N4BP2L2 / RFU, ARFIP1 / Fold change vs veh, ARFIP1 / RFU, FAM179B / Fold change vs veh, FAM179B / RFU, BCL10 / Fold change vs veh, BCL10 / RFU, UHRF1BP1L / Fold change vs veh, UHRF1BP1L / RFU, BET1 / Fold change vs veh, BET1 / RFU, CNOT2 / Fold change vs veh, CNOT2 / RFU, ZNF268 / Fold change vs veh, ZNF268 / Fold change vs veh, ZNF507 / RFU, DGCR2 / Fold change vs veh, DGCR2 / RFU, WDSUB1 / Fold change vs veh, WDSUB1 / Fold change vs veh, HSP90B1 /// MIR3652 / RFU, ADSS / Fold change vs veh, ADSS / RFU, GK / Fold change vs veh, GK / RFU, ZNF148 / Fold change vs veh, ZNF148 / RFU, TAF9 / Fold change vs veh, TAF9 / RFU, SLC1A5 / Fold change vs veh, SLC1A5 / RFU, SLMO2 / Fold change vs veh, SLMO2 / RFU, ABCC4 / Fold change vs veh, ABCC4 / RFU, LOC101060439 /// RAP1B / Fold change vs veh, LOC101060439 /// RAP1B / RFU, RFX7 / Fold change vs veh, RFX7 / RFU, GTPBP10 / Fold change vs veh, GTPBP10 / RFU, CNEP1R1 / Fold change vs veh, CNEP1R1 / RFU, BIVM-ERCC5 /// ERCC5 / Fold change vs veh, BIVM-ERCC5 /// ERCC5 / RFU, ILF3 / Fold change vs veh, ILF3 / RFU 11762660_at / Fold change /veh 11762660_at / RFU VCAN (11757783_s_at) / Fold change /veh VCAN (11757783_s_at) / RFU DDX43 (11728927_at) / Fold change /veh DDX43 (11728927_at) / RFU KRT8 (11758188_x_at) / Fold change /veh KRT8 (11758188_x_at) / RFU NKD1 (11759106_at) / Fold change /veh NKD1 (11759106_at) / RFU SRD5A1 (11742802_a_at) / Fold change /veh SRD5A1 (11742802_a_at) / RFU TPSAB1 /// TPSB2 (11721975_s_at) / Fold change /veh TPSAB1 /// TPSB2 (11721975_s_at) / RFU GSTM3 (11746129_a_at) / Fold change /veh GSTM3 (11746129_a_at) / RFU IL23R (11737362_x_at) / Fold change /veh IL23R (11737362_x_at) / RFU TMEM51 (11727254_a_at) / Fold change /veh TMEM51 (11727254_a_at) / RFU PIWIL2 (11732686_x_at) / Fold change /veh PIWIL2 (11732686_x_at) / RFU ORM1 (11744905_x_at) / Fold change /veh ORM1 (11744905_x_at) / RFU CCDC152 (11743942_at) / Fold change /veh CCDC152 (11743942_at) / RFU ECM1 (11717891_a_at) / Fold change /veh ECM1 (11717891_a_at) / RFU IL23R (11748794_a_at) / Fold change /veh IL23R (11748794_a_at) / RFU TNFAIP8L3 (11732012_x_at) / Fold change /veh TNFAIP8L3 (11732012_x_at) / RFU MBOAT4 (11741988_at) / Fold change /veh MBOAT4 (11741988_at) / RFU 11764193_at / Fold change /veh 11764193_at / RFU TMEM53 (11763286_at) / Fold change /veh TMEM53 (11763286_at) / RFU MAGEB2 (11727129_at) / Fold change /veh MAGEB2 (11727129_at) / RFU TMEM200A (11744735_a_at) / Fold change /veh TMEM200A (11744735_a_at) / RFU CCDC152 (11751479_a_at) / Fold change /veh CCDC152 (11751479_a_at) / RFU FAM211A (11726209_a_at) / Fold change /veh FAM211A (11726209_a_at) / RFU RGS16 (11746705_a_at) / Fold change /veh RGS16 (11746705_a_at) / RFU VCAN (11755009_s_at) / Fold change /veh VCAN (11755009_s_at) / RFU RHOB (11743442_s_at) / Fold change /veh RHOB (11743442_s_at) / RFU RGS16 (11720943_a_at) / Fold change /veh RGS16 (11720943_a_at) / RFU RGS16 (11720944_at) / Fold change /veh RGS16 (11720944_at) / RFU, VPS4B / Fold change vs veh, VPS4B / RFU, CREB1 / Fold change vs veh, CREB1 / RFU, DNAJC13 / Fold change vs veh, DNAJC13 / RFU, GNAQ / Fold change vs veh, GNAQ / RFU, CDK5R1 / Fold change vs veh, CDK5R1 / RFU, ZRANB3 / Fold change vs veh, ZRANB3 / RFU, CUL4A / Fold change vs veh, CUL4A / RFU, CCNY / Fold change vs veh, CCNY / RFU, UFL1 / Fold change vs veh, UFL1 / RFU, COG3 / Fold change vs veh, COG3 / RFU, DIAPH2 / Fold change vs veh, DIAPH2 / RFU, SKA2 / Fold change vs veh, SKA2 / RFU, AFF3 / Fold change vs veh, AFF3 / RFU, LMF1 / Fold change vs veh, LMF1 / RFU, IPO11 / Fold change vs veh, IPO11 / RFU, DFFB / Fold change vs veh, DFFB / RFU, FOXP1 / Fold change vs veh, FOXP1 / RFU, CARD8 / Fold change vs veh, CARD8 / RFU, STRN3 / Fold change vs veh, STRN3 / RFU, ADK / Fold change vs veh, ADK / RFU, RASSF2 / Fold change vs veh, RASSF2 / RFU, WIPF1 / Fold change vs veh, WIPF1 / RFU, LARP1B / Fold change vs veh, LARP1B / RFU, RASA1 / Fold change vs veh, RASA1 / RFU, RB1 / Fold change vs veh, RB1 / RFU, PPFIA1 / Fold change vs veh, PPFIA1 / RFU, MAT2A / Fold change vs veh, MAT2A / RFU, CCT5 / Fold change vs veh, CCT5 / RFU, WDR92 / Fold change vs veh, WDR92 / RFU, CUX1 / Fold change vs veh, CUX1 / RFU, TTC7A / Fold change vs veh, TTC7A / RFU, TMEM135 / Fold change vs veh, TMEM135 / RFU, DEPTOR / Fold change vs veh, DEPTOR / RFU, CPM / Fold change vs veh, CPM / RFU, DNAJB6 / Fold change vs veh, DNAJB6 / RFU, CACNA2D3 / Fold change vs veh, CACNA2D3 / RFU, DTX4 / Fold change vs veh, DTX4 / RFU, TFCP2 / Fold change vs veh, TFCP2 / RFU, GMCL1 /// GMCL1P1 / Fold change vs veh, GMCL1 /// GMCL1P1 / RFU, AEBP2 / Fold change vs veh, AEBP2 / RFU, SNHG1 /// SNORD22 /// SNORD25 /// SNORD26 /// SNORD27 /// SNORD28 /// SNORD29 /// SNORD31 / Fold change vs veh, SNHG1 /// SNORD22 /// SNORD25 /// SNORD26 /// SNORD27 /// SNORD28 /// SNORD29 /// SNORD31 / Fold change (Aza/veh), C12orf56 (ProbeSet 11735607_a_at) / Fold change (ACY-1035/veh), C12orf56 (ProbeSet 11735607_a_at) / Fold change (Aza/veh), FGFR1OP (ProbeSet 11751329_s_at) / Fold change (ACY-1035/veh), FGFR1OP (ProbeSet 11751329_s_at) / Fold change (Aza/veh), VPS36 (ProbeSet 11739960_a_at) / Fold change (ACY-1035/veh), VPS36 (ProbeSet 11739960_a_at) / RFU SYPL1 (11715823_x_at) / Fold change /veh SYPL1 (11715823_x_at) / RFU IGFBP7 (11715501_s_at) / Fold change /veh IGFBP7 (11715501_s_at) / RFU REEP3 (11722064_at) / Fold change /veh REEP3 (11722064_at) / RFU IGLL1 (11728026_x_at) / Fold change /veh IGLL1 (11728026_x_at): dose or concentration left out as unconfirmed. The conditions noted are these: ProbeSet 11732154_at; LIST B.

As for `Nc1ccc(-c2cccs2)cc1NC(=O)c1ccc2c(c1)cc(C1CC1)n2CCN1CCOCC1` [ACY-1035], the “RFU, OGT” value was found to be 340.88 RFU.
